ChEMBL document CHEMBL1201862, “PubChem BioAssay data set” (2004)
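Where inhibition never reached the appropriate level, the endpoint shown equals the highest concentration tested. Otherwise, values were interpolated linearly from a five-concentration, 48-hour dose response in 96-well plates. The concentration for 50% growth inhibition is given as GI50.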 Activity calls are given as the source filed them. Cut-off read from the data, not from the text of the source: active = GI50 up to about 1.1 µM and inactive = higher.

Columns and labels:
Experiment in all cases: NCI-60 cell line screen, 48 h
ACHN = tested on: ACHN
UACC-257 = tested on: UACC-257
UO-31 = tested on: UO-31
SNB-75 = tested on: SNB-75
NCI-H460 = tested on: NCI-H460
OVCAR-5 = tested on: OVCAR-5
A498 = tested on: A498
SF-268 = tested on: SF-268
OVCAR-8 = tested on: OVCAR-8
CCRF-CEM = tested on: CCRF-CEM
Malme-3M = tested on: Malme-3M
A549 = tested on: A549
SF-295 = tested on: SF-295
RXF 393 = tested on: RXF 393
HOP-92 = tested on: HOP-92
OVCAR-4 = tested on: OVCAR-4

Measured: GI50

Cc1nc(-n2nc(-c3ccccc3)cc2-c2ccccc2)sc1C(=O)/C=C/c1ccccc1
inactive: ACHN > 100 µM | UACC-257 > 100 µM | UO-31 17.9 µM | SNB-75 6.58 µM | NCI-H460 > 100 µM | OVCAR-5 > 100 µM | A498 > 100 µM | SF-268 > 100 µM | OVCAR-8 > 100 µM | CCRF-CEM 72.9 µM | Malme-3M > 100 µM | A549 75.3 µM | SF-295 > 100 µM | RXF 393 > 100 µM | HOP-92 70.1 µM

O=C(Nc1ccc([N+](=O)[O-])cc1)C1C(=O)C(=O)N(c2ccc([N+](=O)[O-])cc2)C1=O (stereo not given)
inactive: ACHN 32.8 µM | UACC-257 > 100 µM | UO-31 78 µM | SNB-75 > 100 µM | NCI-H460 34.5 µM | OVCAR-5 > 100 µM | A498 > 100 µM | SF-268 > 100 µM | OVCAR-8 > 100 µM | CCRF-CEM > 100 µM | Malme-3M > 100 µM | A549 > 100 µM | SF-295 80.2 µM | RXF 393 > 100 µM | HOP-92 > 100 µM

O=C(c1cc2ccccc2o1)N(Cc1ccccc1)c1ccccc1
inactive: ACHN 26.6 µM | UACC-257 20.3 µM | UO-31 22.9 µM | SNB-75 28.3 µM | NCI-H460 26.9 µM | OVCAR-5 30.3 µM | A498 34.4 µM | SF-268 41.4 µM | OVCAR-8 22.9 µM | CCRF-CEM 13.6 µM | Malme-3M 23.7 µM | A549 32.6 µM | SF-295 34.4 µM | RXF 393 26 µM | HOP-92 20.7 µM

CCOP(=O)(C/C(O)=C1\C(=O)C(CCCCNC(=O)OC(C)(C)C)N(Cc2ccccc2)C1=O)OCC (stereo not given)
inactive: ACHN > 100 µM | UACC-257 > 100 µM | UO-31 > 100 µM | SNB-75 > 100 µM | NCI-H460 > 100 µM | OVCAR-5 > 100 µM | A498 > 100 µM | SF-268 > 100 µM | OVCAR-8 > 100 µM | CCRF-CEM > 100 µM | OVCAR-4 94.2 µM | Malme-3M > 100 µM | A549 > 100 µM | SF-295 > 100 µM | RXF 393 > 100 µM

COC(=O)CCC(=O)Nc1cc(C)ccc1C
inactive: ACHN > 100 µM | UACC-257 > 100 µM | UO-31 > 100 µM | SNB-75 > 100 µM | NCI-H460 > 100 µM | A498 > 100 µM | OVCAR-8 > 100 µM | CCRF-CEM > 100 µM | OVCAR-4 > 100 µM | Malme-3M > 100 µM | A549 > 100 µM | SF-295 > 100 µM | RXF 393 > 100 µM | HOP-92 > 100 µM

CCc1cccc(C)c1NC(=O)CCc1nnc(S)[nH]1
inactive: ACHN > 100 µM | UACC-257 > 100 µM | UO-31 > 100 µM | NCI-H460 > 100 µM | OVCAR-5 > 100 µM | SF-268 > 100 µM | OVCAR-8 > 100 µM | CCRF-CEM > 100 µM | OVCAR-4 > 100 µM | Malme-3M > 100 µM | A549 > 100 µM | SF-295 > 100 µM | RXF 393 > 100 µM | HOP-92 > 100 µM

Cc1c(-c2coc(-c3ccccc3)n2)c(=O)n(-c2ccccc2)n1C
inactive: ACHN > 100 µM | UACC-257 49.7 µM | UO-31 84.7 µM | SNB-75 > 100 µM | NCI-H460 > 100 µM | OVCAR-5 > 100 µM | A498 > 100 µM | SF-268 > 100 µM | OVCAR-8 44.6 µM | CCRF-CEM > 100 µM | OVCAR-4 > 100 µM | Malme-3M 98.6 µM | A549 > 100 µM | SF-295 > 100 µM | HOP-92 > 100 µM

CC(=O)CCCCCCCCCCCC[C@@H]1CC[C@H](C)[C@H](O)N1
inactive: ACHN > 100 µM | UACC-257 > 100 µM | UO-31 67.1 µM | SNB-75 89.1 µM | NCI-H460 > 100 µM | OVCAR-5 > 100 µM | SF-268 > 100 µM | OVCAR-8 > 100 µM | CCRF-CEM > 100 µM | Malme-3M > 100 µM | A549 > 100 µM | SF-295 > 100 µM | RXF 393 > 100 µM | HOP-92 > 100 µM

CCCCNC1=C(C(=O)OCC)/C(=N/NC(=O)c2ccccc2O)CO1
inactive: UACC-257 2.82 µM | UO-31 4.54 µM | SNB-75 1.73 µM | NCI-H460 33.3 µM | OVCAR-5 59.7 µM | A498 > 100 µM | SF-268 6.97 µM | OVCAR-8 95.1 µM | CCRF-CEM 23.7 µM | OVCAR-4 19.4 µM | Malme-3M 35.2 µM | A549 47.8 µM | SF-295 76.6 µM | RXF 393 23.8 µM

O=C(O)c1c[nH]cc1C(=O)O
inactive: UACC-257 > 100 µM | UO-31 > 100 µM | SNB-75 96.4 µM | NCI-H460 > 100 µM | OVCAR-5 > 100 µM | A498 > 100 µM | SF-268 > 100 µM | OVCAR-8 > 100 µM | CCRF-CEM > 100 µM | OVCAR-4 > 100 µM | Malme-3M > 100 µM | A549 > 100 µM | SF-295 > 100 µM | RXF 393 > 100 µM | HOP-92 > 100 µM

CN1CCCNCCN(CCc2ccccn2)CCCN(C)CC1
inactive: ACHN > 100 µM | UACC-257 > 100 µM | UO-31 > 100 µM | SNB-75 > 100 µM | NCI-H460 > 67.3 µM | OVCAR-5 > 100 µM | A498 > 100 µM | SF-268 > 100 µM | OVCAR-8 > 100 µM | CCRF-CEM > 41.9 µM | OVCAR-4 > 58.5 µM | Malme-3M > 100 µM | A549 > 100 µM | SF-295 > 100 µM | HOP-92 > 100 µM

Cc1ccc(C(=O)N2CCCCC2)cc1/N=N/N(C)C
inactive: ACHN > 100 µM | UACC-257 > 100 µM | UO-31 > 100 µM | SNB-75 > 100 µM | NCI-H460 > 100 µM | OVCAR-5 > 100 µM | A498 > 100 µM | SF-268 > 100 µM | OVCAR-8 > 100 µM | CCRF-CEM > 100 µM | OVCAR-4 > 100 µM | Malme-3M > 100 µM | A549 > 100 µM | SF-295 > 100 µM

CC1CC(=O)CC[C@@H]1OCc1ccccc1 (stereo not given in full)
inactive: ACHN > 100 µM | UACC-257 > 100 µM | UO-31 > 100 µM | SNB-75 > 100 µM | NCI-H460 > 100 µM | OVCAR-5 > 100 µM | A498 > 100 µM | SF-268 > 100 µM | OVCAR-8 > 100 µM | CCRF-CEM 53.8 µM | OVCAR-4 > 100 µM | Malme-3M > 100 µM | A549 > 100 µM | SF-295 > 100 µM | RXF 393 > 100 µM
